# Test results published in US8022051B2, “Composition for protection and improvement of skin, or reinforcing skin barrier function comprising phosphatidylserine” (Doosan Corporation, priority 2004, dated 2011).
# Assays:
# [1] = test system: skin keratinocyte cell line (HaCaT); assay: Protection of skin keratinocytes from ultraviolet injury (MTT assay); type: cell-based, human; details: 25 mJ/cm^2 UVB; phosphatidylserine 20 and 40 μM, WY-14643 200 μM; 24 hours; FIG. 4
# [2] = test system: skin keratinocytes (HaCaT); assay: Protection from ROS (hydrogen peroxide) in skin keratinocytes (MTT assay); type: cell-based; details: FIG. 8
# Procedure: In order to measure an effect of protecting the skin from the ROS in the keratinocyte by the phosphatidylserine of the invention, a following experiment was performed.
# First, the skin keratinocytes (HaCaT) were seeded to the 24-well plate in an amount of 5×10^4 cells/well. Next day, it was treated with 25 μM phosphatidylserine aqueous solution (Doosan Biotech, Korea) (phosphatidylserine-treated group), 100 μM vitamin C (ascorbic acid-treated group) and 100 μM vitamin E (a-tocopherol-treated group) as the positive control group and then cultured for 24 hours. Next day, it was treated with 1 mM hydrogen peroxide (H2O2) and then cultured for about 1˜1.5 hours. Then, a cell viability was examined with the MTT assay.
# [3] = test system: erythema formation due to UVB on arm inside parts of examinees; assay: Suppression of skin damage (erythema formation) due to ultraviolet irradiation in examinees; type: in vivo, human; details: 0.5% aqueous solution, 30 μl pre-applied; UVB 2, 3 and 4 MED; compared to the control group; FIG. 1
# Procedure: In order to examine a skin damage (inflammatory response)-alleviating effect of the phosphatidylserine of the invention, which stimulation results from the ultraviolet irradiation, a following experiment was performed. At this time, the skin stimulation (inflammatory response) due to the ultraviolet irradiation was measured with an erythema formation level.
# First, it was measured minimal erythma dosage (MED) in arm inside parts of examinees (28 years old or more, 10 women and men, respectively). An aqueous solution including phosphatidylserine 0.5% (aqueous solution phase containing 5% PEG 300; PEG300, Sigma, US) was previously applied to the arm inside parts of the examinees in an amount of 30 μl which were then irradiated with UVB (Sankyo Denki G15T8E sunlamps UV-B, Japan) in an intensity of 2 MED (78 mj/cm^2), 3 MED (117 mj/cm^2) and 4 MED (156 mj/cm^2) to measure suppression degrees of the erythema formation. At this time, a group for which the phosphatidylserine was not treated was used as a control group.
# [4] = test system: normal human keratinocytes; assay: Differentiation promoting effect in skin keratinocytes (western blot of involucrin and transglutaminase); type: cell-based; details: phosphatidylserine 20 and 40 μM, calcium 1.2 mM, clofibrate 200 and 400 μM; 24 hours; FIG. 5
# Procedure: In order to examine a differentiation promoting effect in the skin keratinocytes by the phosphatidylserine of the invention, a following experiment was performed. First, the normal human keratinocytes (a gift from Dong-guk University) cultured in the KSFM (Keratinocyte-SFM; Gibco BRL/Life Technologies, USA) were seeded to the 35 mm^2 cell culture dish in an amount of 1.5×10^5 cells/dish and then cultured for a day. Next day, the culture medium was removed and a new culture medium containing 20 and 40 μM of phosphatidylserine aqueous solution, 1.2 mM calcium aqueous solution and 200 and 400 μM of clofibrate (Sigma, USA) added thereto was added and cultured for 24 hours. Next day, in order to make sure of a differentiation of the keratinocyte, a morphology change of the cell was checked with a phase contrast microscope (Nikon, Japan) and a photograph was taken with a digital camera attached to the microscope. In addition, a western blot was performed to check the protein expression amount of involucrin and transglutaminase, which have been known as a differentiation-marker proteins of the keratinocyte peculiar to the keratin. 500 μl of a lysis buffer having 2% sodium dodecyl sulfate (SDS) added thereto wad added and the cells were collected with a cell scrapper, so that cell lysate only was obtained. […]
# PPAR-γ = molecular target: T1, PPAR-γ (Homo sapiens, UniProt P37231); assay: PPAR-γ activation in HeLa cell line (luciferase reporter); type: cell-based; details: 10 and 50 μM; FIG. 7
# T1 construct: expressed in transfected cells; host or cells: HeLa (KCLB No. 10002)
# T1 sequence (P37231 1-505): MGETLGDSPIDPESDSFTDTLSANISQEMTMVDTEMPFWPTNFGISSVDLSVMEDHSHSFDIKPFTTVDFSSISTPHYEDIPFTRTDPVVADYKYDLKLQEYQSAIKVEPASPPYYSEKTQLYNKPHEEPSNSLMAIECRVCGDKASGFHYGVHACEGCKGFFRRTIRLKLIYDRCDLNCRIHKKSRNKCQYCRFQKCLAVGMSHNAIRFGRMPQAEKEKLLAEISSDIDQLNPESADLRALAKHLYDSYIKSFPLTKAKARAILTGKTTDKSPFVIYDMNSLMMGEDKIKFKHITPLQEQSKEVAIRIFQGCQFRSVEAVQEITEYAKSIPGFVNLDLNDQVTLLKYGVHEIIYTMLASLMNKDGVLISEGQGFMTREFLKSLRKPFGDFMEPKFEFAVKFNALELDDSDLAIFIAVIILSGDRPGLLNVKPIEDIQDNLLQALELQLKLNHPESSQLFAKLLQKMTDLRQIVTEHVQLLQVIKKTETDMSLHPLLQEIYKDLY
# Procedure: In order to examine a PPAR-a activating effect of the phosphatidylserine of the invention, a following experiment was performed. At this time, it was examined activities for the PPAR-a and PPAR-γ retained.
# First, a HeLa (Human epithelial carcinoma) (KCLB [Korean Cell Line Bank] No. 10002, Korea) was seeded to a 24-well plate in an amount of 2×10^4 cells/well and then cultured for a day. Next day, in order to perform a cell transfection, 200 ng of PPAR-a over-expression vector, 200 ng of PPRE (peculiar to PPAR-a)-luciferase reporter vector (Promega, USA), and 40 ng of renilla luciferase vector used as the control group in the cell (internal control, i.e., used to examine an transfection efficiency) were mixed in the OMEM (Gibco, USA) culture medium and subject to the transfection to the cell using the lipofectamin (Invitrogen, USA). After four hours, the culture medium was added to be 10% FBS and then cultured for one night. […] An activity of the luciferase was measured with a luminometer using a dual luciferase assay system (Promega, USA). Also in case of PPAR-γ, the same process was performed to measure the activity. At this time, in case of measuring the activity of PPAR-γ, 10 and 50 μM of phosphatidylserine and 50 μM of cyglitazone (Sigma, USA) as the positive control group were treated. […]
substance,measurement,setting,value
phosphatidylserine,"protection of skin keratinocytes from ultraviolet injury (cell survival, MTT)",[1],protected the skin keratinocytes from the ultraviolet injury
same,protection effect from reactive oxygen species compared with the positive control material,[2]; phosphatidylserine 25 μM versus 100 μM positive controls,same protection effect with a smaller amount
same,"protection effect from reactive oxygen species (cell viability, MTT)","[2]; phosphatidylserine 25 μM, vitamin C 100 μM, vitamin E 100 μM, 24 hours, then 1 mM H2O2 about 1-1.5 hours",exhibited the protection effect
same,erythema formation,[3],considerably suppressed
same,protein expression of involucrin and transglutaminase,[4],rapidly increased the expressions of the proteins
same,activity of PPAR-γ (luciferase),PPAR-γ,had no influence
